Data published in patent US20240245670A1, “DOSING REGIMEN AND PHARMACEUTICAL COMBINATION COMPRISING 3-(1-OXOISOINDOLIN-2-YL)PIPERIDINE-2,6-DIONE DERIVATIVES” (Novartis AG, priority 2018, published 2024).

Tests used:
IKZF2 = molecular target: T1, IKZF2 (Oryctolagus cuniculus, UniProt A0A5F9CPW0); experiment: IKZF2 degradation in primary PBMCs in vitro (FIG. 3); assay type: cell-based; conditions: primary rabbit PBMCs; concentrations up to 10 μM
T1 construct: endogenous in cells; host or cells: primary rabbit PBMCs
T1 sequence (A0A5F9CPW0 1-526): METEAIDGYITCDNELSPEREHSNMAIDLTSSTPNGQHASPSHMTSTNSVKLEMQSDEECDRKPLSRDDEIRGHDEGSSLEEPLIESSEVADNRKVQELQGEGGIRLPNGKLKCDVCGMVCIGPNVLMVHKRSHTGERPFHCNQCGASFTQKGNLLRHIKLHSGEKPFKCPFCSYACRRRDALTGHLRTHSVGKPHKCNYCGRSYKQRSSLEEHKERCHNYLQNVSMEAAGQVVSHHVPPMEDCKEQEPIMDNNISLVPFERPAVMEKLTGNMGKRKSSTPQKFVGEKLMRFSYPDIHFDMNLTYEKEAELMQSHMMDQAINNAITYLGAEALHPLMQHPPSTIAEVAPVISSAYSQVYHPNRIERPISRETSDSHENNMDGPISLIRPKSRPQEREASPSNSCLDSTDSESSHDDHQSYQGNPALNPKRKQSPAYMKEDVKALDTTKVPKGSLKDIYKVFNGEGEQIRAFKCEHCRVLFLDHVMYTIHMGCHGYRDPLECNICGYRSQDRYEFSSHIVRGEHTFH
Method: FIG. 3. is a bar graph showing the degradation of IKZF2 in primary PBMCs obtained from rabbit, dog, pig, cynomolgus monkey and human, and in primary splenocytes of mouse and rat and treated with Compound I-57.
I-57 mediated degradation of IKZF2 was assessed in primary PBMCs obtained from rabbit, dog, pig, cynomolgus monkey, and human, and in primary splenocytes of mouse and rat. […] Species-specificity due to species specific alteration CRBN primary structure have previously been described with other compounds known to interact with the CRBN ubiquitin ligase complex to elicit protein specific degradation (Krönke et al, 2015).

[1] = PK in repeated oral dose study, MDA-MB231 xenograft human PBMC adoptive transfer mouse model (Table 14); assay type: in vivo; conditions: for AUCinf (unbound) / Cmax (unbound): mouse, unbound (73% PPB in mouse)
Method: FIG. 6 is a pictorial representation of the multi-dose PK/PD study design in the human PBMC adoptive transfer mouse model harboring MDA-MB231 xenografts. Fourteen consecutive daily doses of Compound I-57 was administered at 0.3 mg/kg, 1 mg/kg, 3 mg/kg or 30 mg/kg.
The PK/PD relationship of I-57 was examined in the hPBMC AdT model system. Human PBMCs were adoptively transferred into female NSG mice harboring established MDA-MB231 xenografts (FIG. 6). This model was selected based on the observation that IKZF2 positive Tregs (CD4+FOXP3+) were readily identifiable in peripheral blood and infiltrated in the tumor xenografts.
Mice were administered I-57 daily for 14 consecutive days at the doses shown. Longitudinal I-57 plasma concentrations were assessed (Table 14).
Based on the data from this hPBMC AdT mouse model, unbound I-57 (73% percent plasma binding in the mouse) exposures (AUCinf) of 7, 30, 157 and 3474 ng*h/mL are required to achieve the reduction of IKZF2 positivity (via flow cytometry) in tumor Tregs by 31, 43, 56, and 75%, respectively. The relationship between the magnitude and duration of I-57-mediated IKZF2 degradation and subsequent modulation of therapeutically relevant downstream biology is not yet well understood.

[2] = In vivo non-clinical PK profile, i.v. and p.o., all species tested (mouse, rat, dog, cynomolgus monkey)
Method: (§1) The in vivo non-clinical PK profile of I-57 was investigated in mouse, rat, dog and cynomolgus monkey using I-57 free base. […] After p.o. administration, the absorption of I-57 was rapid with peak blood concentration (Tmax) occurring between 1 and 4 hours. […] In high dose PK and toxicology studies with I-57 the exposures in mouse, rat and monkey increased with dose.

[3] = In vivo non-clinical PK / high dose PK; conditions: mouse; between 3 mg/kg and 100 mg/kg
Method: as §1
The binding to plasma protein of I-57 in vitro was moderate in all species, with an observed difference between rodents (73% in mouse, 76% in rat) and non-rodents (52% in dog and monkey, 54% in human). Blood-to-plasma ratios were in the range of 0.7-1.8 (human 1.1-1.3). […] Based on results with non-radiolabeled I-57 in the dog, a significant amount of unchanged I-57 was renally eliminated (˜20% of dose).

[4] = In vivo non-clinical PK / high dose PK and toxicology exposure; conditions: rat; between 3 mg/kg and 300 mg/kg
Method: as §1

human recombinant CYPs = experiment: Assessment of enzymes involved in oxidative metabolism using human recombinant CYPs in vitro; assay type: in vitro ADME; conditions: preliminary assessment
Method: In vivo in the dog, very minor amounts of the N-dealkylation product and products derived from hydrolysis of the glutarimide moiety were detected in plasma. While the contribution of CYP-mediated oxidative metabolism to systemic clearance is unknown, a preliminary assessment of the enzymes involved was conducted using human recombinant CYPs in vitro.

cynomolgus monkeys = experiment: 4-week GLP toxicology study in cynomolgus monkeys; assay type: in vivo
Method: The starting dose of I-57 selected for this study is supported by 4-week GLP toxicology studies performed in cynomolgus monkeys. […] GLP toxicity studies identified 30 mg/kg as the HNSTD in monkey and supported a starting dose up to 100 mg QD in human (BSA scaled HED and using a safety factor of 6). The selected dose of 20 mg is anticipated to result in a significant but sub-maximal IKZF2 degradation in human PBMCs and TILs (50-90%), based on PK/PD modeling of I-57 exposure and IKZF2 degradation in cynomolgus PBMCs. More IKZF2 degradation may be required to change downstream biology. Therefore, 20 mg is considered safe. Escalation from this starting dose will facilitate the determination of the minimal required dose which provides optimal IKZF2 degradation to impact downstream biological activity.

[5] = Preclinical safety observations; assay type: in vivo
From the text: The inclusion/exclusion criteria, dose modification guidelines and safety assessments in this FIH trial account for both the disease indications and preclinical safety profile of I-57 and PDR001. Of note are the provisions put in place for the risk of autoimmune events for both PDR001 and potentially I-57.

[6] = p.o. 0.3 mg/kg daily, post 1st dose
[7] = p.o. 0.3 mg/kg daily, post 13th dose
[8] = p.o. 1 mg/kg daily, post 1st dose
[9] = p.o. 1 mg/kg daily, post 13th dose
[10] = p.o. 3 mg/kg daily, post 1st dose
[11] = p.o. 3 mg/kg daily, post 13th dose
[12] = p.o. 30 mg/kg daily, post 1st dose
[13] = p.o. 30 mg/kg daily, post 13th dose

In the case of `O=C1CCC(N2Cc3cc(C4CCN(Cc5ccccc5)CC4)ccc3C2=O)C(=O)N1` (centres unmarked) [Compound I-57, 3-(5-(1-benzylpiperidin-4-yl)-1-oxoisoindolin-2-yl)piperidine-2,6-dione], the “degradation of IKZF2” value (IKZF2) is reported as “Degradation was observed”, the “increase in AUC and Cmax with dose” value ([1]; between 3 and 30 mg/kg, daily oral) is reported as “over-dose proportional increase” and the “increase in overall AUC and Cmax with dose” value ([1]; from 0.3 to 3 mg/kg, daily oral) is reported as “dose proportional increase”. The “AUCinf (unbound)” value [1, 6] was 7.1 ng·h/mL, the “Cmax (unbound)” value [1, 6] was 2.9 ng/mL and the “AUCinf (unbound)” value [1, 7] was 7.5 ng·h/mL. The “Cmax (unbound)” value [1, 7] was 1.1 ng/mL, the “AUCinf (unbound)” value [1, 8] was 30 ng·h/mL and the “Cmax (unbound)” value [1, 8] was 8.8 ng/mL. The “AUCinf (unbound)” value [1, 9] was 20 ng·h/mL, the “Cmax (unbound)” value [1, 9] was 4.6 ng/mL and the “AUCinf (unbound)” value [1, 10] was 157 ng·h/mL. The “Cmax (unbound)” value [1, 10] was 53 ng/mL, the “AUCinf (unbound)” value [1, 11] was 92 ng·h/mL and the “Cmax (unbound)” value [1, 11] was 27 ng/mL. The “AUCinf (unbound)” value [1, 12] was 3470 ng·h/mL, the “Cmax (unbound)” value [1, 12] was 1250 ng/mL and the “AUCinf (unbound)” value [1, 13] was 4270 ng·h/mL. For the same molecule, the “Cmax (unbound)” value [1, 13] was 1300 ng/mL, the “unbound exposure (AUCinf)” value ([1]; required for reduction of IKZF2 positivity in tumor Tregs by 31%) was 7 ng·h/mL and the “unbound exposure (AUCinf)” value ([1]; required for reduction of IKZF2 positivity in tumor Tregs by 43%) was 30 ng·h/mL. For the same molecule, the “unbound exposure (AUCinf)” value ([1]; required for reduction of IKZF2 positivity in tumor Tregs by 56%) was 157 ng·h/mL, the “unbound exposure (AUCinf)” value ([1]; required for reduction of IKZF2 positivity in tumor Tregs by 75%) was 3474 ng·h/mL and the “terminal half-life (T1/2)” value ([2]; i.v. administration, all species tested) was “moderate”. For the same molecule, the absorption ([2]; p.o. administration) was “rapid”, the “increase in AUC with dose” value [3] was “roughly dose proportional” and the “increase in AUC with dose” value [4] was “roughly dose proportional”. The “enzyme primarily mediating oxidative metabolism” value (human recombinant CYPs) was “CYP3A4”, the “supported starting dose in human (BSA scaled HED, safety factor of 6)” value (cynomolgus monkeys; derived from monkey HNSTD) was “up to 100 mg QD” and the HNSTD (cynomolgus monkeys; monkey, 4-week GLP toxicity studies) was 30 mg/kg. The “preclinical observation (ECG)” value [5] was “QTc prolongation” and the “preclinical observation (urine)” value [5] was “hematuria and proteinuria”.
